# Assay results as given in patent US20080009418A1, “Selective Inhibitors” (Alchemia LTD., priority 2004, published 2008).
# What was measured:
# Human opioid (ORL1) = biological target: T1, Human opioid (ORL1) (Homo sapiens, UniProt P41146); assay: Radioligand binding, human opioid ORL1 membranes, FlashPlate, [125I]-Nociceptin; conditions: compound at 10 μM, [125I]-Nociceptin
# T1 construct: purchased Perkin Elmer Biosignal
# Outline: (§1)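 Cloned human receptor membranes were coated onto FlashPlate wells and incubated with radioligand and compound (added from a 0.5 mM DMSO daughter plate) for 1 hour at room temperature in the dark. Scintillation counting gave percent inhibition, with DMSO defining total and reference ligand defining non-specific binding.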
# Human μ-opioid (MOP) = biological target: T2, Human μ-opioid (MOP) (Homo sapiens, UniProt P35372); assay: Radioligand binding, human μ-opioid (MOP) membranes, FlashPlate, [3H]-Naloxone; conditions: compound at 10 μM, [3H]-Naloxone
# T2 construct: purchased Perkin Elmer Biosignal
# Outline: as §1
# [1] = biological target: T3, Human melanin-concentrating hormone (MCH1) (Homo sapiens, UniProt Q99705); assay: Radioligand binding, human melanin-concentrating hormone MCH1 membranes, FlashPlate, [125I]-S36057; conditions: compound at 10 μM; for A6: inhibition of radioligand binding, human melanin-concentrating hormone (MCH1): [125I]-S36057
# T3 construct: purchased Perkin Elmer Biosignal
# Outline: as §1
# Human Melanocortin (MC3) = biological target: T4, Human Melanocortin (MC3) (Homo sapiens, UniProt P41968); assay: Radioligand binding, human melanocortin MC3 membranes, FlashPlate, [125I]-NDP-αMSH; conditions: compound at 10 μM, [125I]-NDP-αMSH
# T4 construct: purchased Perkin Elmer Biosignal
# Outline: as §1
# Human κ-Opioid (KOP) = biological target: T5, Human κ-Opioid (KOP) (Homo sapiens, UniProt P41145); assay: Radioligand binding, human κ-opioid (KOP) membranes, filtration, [3H]-Diprenorphine; conditions: compound at 10 μM, [3H]-Diprenorphine
# T5 construct: purchased Perkin Elmer Biosignal
# Outline: (§2)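 Percent inhibition of radioligand binding measured on recombinant human membranes: NK1 with [125I]-Substance P, KOP with [3H]-Diprenorphine. Incubation 1 h at room temperature, then harvest onto 0.3% PEI-soaked filters, cold Tris-HCl pH 7.4 washes and scintillation counting; non-specific binding from reference ligand wells.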
# Human δ-opioid (DOP) = biological target: T6, Human δ-opioid (DOP) (Homo sapiens, UniProt P41143); assay: Radioligand binding, human δ-opioid (DOP) membranes, FlashPlate, [3H]-Bremazocine; conditions: compound at 10 μM, [3H]-Bremazocine
# T6 construct: purchased Perkin Elmer Biosignal
# Outline: as §1
# [2] = biological target: T7, Human neuropeptide Y (NPY-Y1) (Homo sapiens, UniProt P25929); assay: Radioligand binding, human neuropeptide Y NPY-Y1 membranes, FlashPlate, [125I]-PYY; conditions: compound at 10 μM, [125I]-PYY
# T7 construct: purchased Perkin Elmer Biosignal
# T7 sequence (P25929 1-384): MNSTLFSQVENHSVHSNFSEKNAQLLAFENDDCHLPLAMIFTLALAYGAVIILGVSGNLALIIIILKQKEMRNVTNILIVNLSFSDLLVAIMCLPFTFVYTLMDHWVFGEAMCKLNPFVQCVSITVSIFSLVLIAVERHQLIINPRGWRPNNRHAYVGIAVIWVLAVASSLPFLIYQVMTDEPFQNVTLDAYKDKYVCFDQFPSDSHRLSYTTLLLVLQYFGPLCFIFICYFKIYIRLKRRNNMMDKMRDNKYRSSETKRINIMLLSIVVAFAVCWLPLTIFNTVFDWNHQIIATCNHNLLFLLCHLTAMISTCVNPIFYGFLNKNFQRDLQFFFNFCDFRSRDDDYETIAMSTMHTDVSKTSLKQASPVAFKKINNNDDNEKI
# Outline: as §1
# Mouse urotensin (mUR2) = biological target: T8, Mouse urotensin (mUR2) (Mus musculus, UniProt Q8VIH9); assay: Radioligand binding, mouse urotensin mUR2 membranes, FlashPlate, [125I]-Urotensin II; conditions: compound at 10 μM, [125I]-Urotensin II
# T8 construct: purchased Perkin Elmer Biosignal
# T8 sequence (Q8VIH9 1-385): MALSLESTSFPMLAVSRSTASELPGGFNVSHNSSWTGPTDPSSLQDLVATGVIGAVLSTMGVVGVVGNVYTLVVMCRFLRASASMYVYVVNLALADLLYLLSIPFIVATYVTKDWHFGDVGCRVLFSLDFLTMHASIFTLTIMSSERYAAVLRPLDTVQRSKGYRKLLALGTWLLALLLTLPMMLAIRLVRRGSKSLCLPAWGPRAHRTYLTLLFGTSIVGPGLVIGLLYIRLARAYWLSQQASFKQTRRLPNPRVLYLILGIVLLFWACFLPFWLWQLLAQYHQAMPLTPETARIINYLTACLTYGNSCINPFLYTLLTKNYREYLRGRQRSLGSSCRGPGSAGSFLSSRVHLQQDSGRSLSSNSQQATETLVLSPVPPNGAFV
# Outline: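 Cloned mouse urotensin (mUR2) receptor membranes from Perkin Elmer Biosignal were immobilized in FlashPlate microplates using a proprietary coating. Each well got 19.5 μl buffer, then 0.5 μl of DMSO, reference ligand, or compound. Adding 5 μl of [125I]-Urotensin II, diluted to 5× final concentration in binding buffer, started binding. Plates were sealed with TopSeal-A and incubated 1 hour at room temperature in the dark. Wells were counted for 30 seconds each on a TopCount after a 60-second delay, and percentage inhibition was calculated.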
# Human Melanocortin (MC4) = biological target: T9, Human Melanocortin (MC4) (Homo sapiens, UniProt P32245); assay: Radioligand binding, human melanocortin MC4 membranes, FlashPlate, [125I]-NDP-αMSH; conditions: compound at 10 μM, [125I]-NDP-αMSH
# T9 construct: purchased Perkin Elmer Biosignal
# Outline: as §1
# Human melanocortin (MC5) = biological target: T10, Human melanocortin (MC5) (Homo sapiens, UniProt P33032); assay: Radioligand binding, human melanocortin MC5 membranes, FlashPlate, [125I]-NDP-αMSH; conditions: compound at 10 μM, [125I]-NDP-αMSH
# T10 construct: purchased Perkin Elmer Biosignal
# Outline: as §1
# Human neurokinin (NK1) = biological target: T11, Human neurokinin (NK1) (Homo sapiens, UniProt P25103); assay: Radioligand binding, human neurokinin NK1 membranes, filtration, [125I]-Substance P; conditions: compound at 10 μM, [125I]-Substance P
# T11 construct: purchased Perkin Elmer Biosignal
# Outline: as §2
# T3 sequence (Q99705 whole entry): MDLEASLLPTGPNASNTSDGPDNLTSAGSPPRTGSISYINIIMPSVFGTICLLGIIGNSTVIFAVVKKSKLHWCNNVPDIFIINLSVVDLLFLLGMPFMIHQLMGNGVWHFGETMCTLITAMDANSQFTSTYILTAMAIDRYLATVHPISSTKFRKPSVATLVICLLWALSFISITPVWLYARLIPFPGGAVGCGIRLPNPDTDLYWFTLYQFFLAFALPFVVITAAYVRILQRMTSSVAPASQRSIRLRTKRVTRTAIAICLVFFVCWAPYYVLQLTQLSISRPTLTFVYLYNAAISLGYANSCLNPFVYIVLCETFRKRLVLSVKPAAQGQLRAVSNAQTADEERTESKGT
# T4 sequence (P41968 whole entry): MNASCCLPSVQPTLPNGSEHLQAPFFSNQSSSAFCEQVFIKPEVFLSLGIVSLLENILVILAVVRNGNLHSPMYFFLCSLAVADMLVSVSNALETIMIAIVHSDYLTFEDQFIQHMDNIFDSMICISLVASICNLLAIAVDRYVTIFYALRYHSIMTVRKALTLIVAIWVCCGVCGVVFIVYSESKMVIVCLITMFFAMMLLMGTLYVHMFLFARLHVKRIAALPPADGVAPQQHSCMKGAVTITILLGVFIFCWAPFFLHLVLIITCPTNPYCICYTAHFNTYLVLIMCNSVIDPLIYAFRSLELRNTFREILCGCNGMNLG
# T9 sequence (P32245 whole entry): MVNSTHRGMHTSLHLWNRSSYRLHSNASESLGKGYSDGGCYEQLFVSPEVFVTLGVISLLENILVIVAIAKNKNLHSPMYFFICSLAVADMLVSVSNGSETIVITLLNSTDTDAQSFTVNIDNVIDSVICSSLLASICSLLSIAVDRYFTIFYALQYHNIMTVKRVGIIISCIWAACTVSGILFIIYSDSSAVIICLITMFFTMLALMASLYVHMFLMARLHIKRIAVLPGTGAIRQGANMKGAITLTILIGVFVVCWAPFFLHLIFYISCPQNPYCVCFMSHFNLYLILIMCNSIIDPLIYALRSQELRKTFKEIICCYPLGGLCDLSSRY
# T6 sequence (P41143 whole entry): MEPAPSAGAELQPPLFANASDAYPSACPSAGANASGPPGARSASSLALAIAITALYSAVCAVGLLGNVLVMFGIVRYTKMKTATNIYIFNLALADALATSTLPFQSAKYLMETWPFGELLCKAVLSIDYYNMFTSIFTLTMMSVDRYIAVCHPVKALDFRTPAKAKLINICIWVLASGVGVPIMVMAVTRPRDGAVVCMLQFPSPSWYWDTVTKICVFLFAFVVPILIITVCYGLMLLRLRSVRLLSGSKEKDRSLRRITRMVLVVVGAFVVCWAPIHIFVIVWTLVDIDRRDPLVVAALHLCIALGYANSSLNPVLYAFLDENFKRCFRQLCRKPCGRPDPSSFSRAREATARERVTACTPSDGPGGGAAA
# T10 sequence (P33032 whole entry): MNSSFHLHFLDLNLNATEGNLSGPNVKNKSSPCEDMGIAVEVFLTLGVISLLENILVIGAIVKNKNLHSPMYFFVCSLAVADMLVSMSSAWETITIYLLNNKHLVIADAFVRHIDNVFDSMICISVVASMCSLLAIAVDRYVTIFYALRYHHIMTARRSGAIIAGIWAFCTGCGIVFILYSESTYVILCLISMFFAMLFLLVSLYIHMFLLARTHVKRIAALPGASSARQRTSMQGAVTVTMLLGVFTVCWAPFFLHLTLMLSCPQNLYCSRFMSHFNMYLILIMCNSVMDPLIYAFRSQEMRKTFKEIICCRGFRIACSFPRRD
# T1 sequence (P41146 whole entry): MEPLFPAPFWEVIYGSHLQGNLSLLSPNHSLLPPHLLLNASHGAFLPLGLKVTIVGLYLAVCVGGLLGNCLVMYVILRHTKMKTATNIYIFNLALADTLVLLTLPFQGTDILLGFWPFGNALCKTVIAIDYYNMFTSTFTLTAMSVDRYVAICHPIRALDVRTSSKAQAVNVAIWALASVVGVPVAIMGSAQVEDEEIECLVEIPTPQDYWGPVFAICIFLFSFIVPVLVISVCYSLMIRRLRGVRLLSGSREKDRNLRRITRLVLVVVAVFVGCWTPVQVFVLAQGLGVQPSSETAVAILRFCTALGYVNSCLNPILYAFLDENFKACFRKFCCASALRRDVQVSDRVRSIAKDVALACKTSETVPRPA
# T11 sequence (P25103 whole entry): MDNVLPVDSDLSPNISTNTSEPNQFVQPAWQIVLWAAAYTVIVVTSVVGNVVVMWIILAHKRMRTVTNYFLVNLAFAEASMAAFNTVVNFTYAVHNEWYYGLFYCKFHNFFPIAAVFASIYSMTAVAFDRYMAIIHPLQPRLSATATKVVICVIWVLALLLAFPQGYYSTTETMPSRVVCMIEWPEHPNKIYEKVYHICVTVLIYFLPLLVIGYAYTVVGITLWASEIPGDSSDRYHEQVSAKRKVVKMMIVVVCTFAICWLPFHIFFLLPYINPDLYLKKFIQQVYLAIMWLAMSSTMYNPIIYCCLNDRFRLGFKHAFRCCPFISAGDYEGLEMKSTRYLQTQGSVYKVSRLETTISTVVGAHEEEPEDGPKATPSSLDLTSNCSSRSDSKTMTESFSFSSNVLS
# T2 sequence (P35372 whole entry): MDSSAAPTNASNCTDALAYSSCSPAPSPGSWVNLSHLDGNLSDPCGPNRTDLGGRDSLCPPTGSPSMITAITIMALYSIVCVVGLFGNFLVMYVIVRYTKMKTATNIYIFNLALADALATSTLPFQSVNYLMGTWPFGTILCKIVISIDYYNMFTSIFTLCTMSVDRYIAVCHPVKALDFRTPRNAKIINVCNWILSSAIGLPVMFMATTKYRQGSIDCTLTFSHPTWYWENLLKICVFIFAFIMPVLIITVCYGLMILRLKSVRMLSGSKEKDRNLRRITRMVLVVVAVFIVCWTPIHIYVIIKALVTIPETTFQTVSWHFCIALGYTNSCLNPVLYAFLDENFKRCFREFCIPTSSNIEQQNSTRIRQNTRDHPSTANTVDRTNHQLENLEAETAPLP
# T5 sequence (P41145 whole entry): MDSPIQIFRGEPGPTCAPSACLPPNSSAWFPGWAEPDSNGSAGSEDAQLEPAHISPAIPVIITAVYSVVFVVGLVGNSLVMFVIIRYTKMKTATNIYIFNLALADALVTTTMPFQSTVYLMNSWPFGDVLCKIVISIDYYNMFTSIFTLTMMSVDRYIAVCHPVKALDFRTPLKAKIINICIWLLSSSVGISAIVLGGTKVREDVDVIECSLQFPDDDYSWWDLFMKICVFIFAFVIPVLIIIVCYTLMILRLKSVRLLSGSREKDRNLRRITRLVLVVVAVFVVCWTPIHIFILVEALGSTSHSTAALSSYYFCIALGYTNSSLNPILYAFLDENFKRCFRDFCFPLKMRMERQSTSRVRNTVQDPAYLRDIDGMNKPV
Compound,"A6: inhibition of radioligand binding, human melanin-concentrating hormone (MCH1) [1]","A2: inhibition of radioligand binding, human κ-opioid (KOP) (Human κ-Opioid (KOP))","A1: inhibition of radioligand binding, human δ-opioid (DOP) (Human δ-opioid (DOP))","A9: inhibition of radioligand binding, human neuropeptide Y (NPY-Y1) [2]","A11: inhibition of radioligand binding, mouse urotensin (mUR2) (Mouse urotensin (mUR2))","A4: inhibition of radioligand binding, human melanocortin (MC4) (Human Melanocortin (MC4))","A5: inhibition of radioligand binding, human melanocortin (MC5) (Human melanocortin (MC5))","A8: inhibition of radioligand binding, human neurokinin (NK1) (Human neurokinin (NK1))","A10: inhibition of radioligand binding, human opioid (ORL1) (Human opioid (ORL1))","A7: inhibition of radioligand binding, human μ-opioid (MOP) (Human μ-opioid (MOP))","A3: inhibition of radioligand binding, human melanocortin (MC3) (Human Melanocortin (MC3))",other results
CSC1OC(COCc2ccc3ccccc3c2)C(O)C(OCc2ccccc2)C1NC(=O)CNC(=N)N (stereo not shown) [compound 260],,,,,,,,,,,,"A10: inhibition of radioligand binding (Human opioid (ORL1); FlashPlate): − (“−” indicates less than 50% inhibition at 10 μM); A7: inhibition of radioligand binding (Human μ-opioid (MOP); FlashPlate): − (“−” indicates less than 50% inhibition at 10 μM); A6: inhibition of radioligand binding ([1]; [125I]-S36057, FlashPlate): − (“−” indicates less than 50% inhibition at 10 μM); A3: inhibition of radioligand binding (Human Melanocortin (MC3); FlashPlate): − (“−” indicates less than 50% inhibition at 10 μM); A2: inhibition of radioligand binding (Human κ-Opioid (KOP); filtration): − (“−” indicates less than 50% inhibition at 10 μM); A1: inhibition of radioligand binding (Human δ-opioid (DOP); FlashPlate): − (“−” indicates less than 50% inhibition at 10 μM); A9: inhibition of radioligand binding ([2]; FlashPlate): − (“−” indicates less than 50% inhibition at 10 μM); A11: inhibition of radioligand binding (Mouse urotensin (mUR2); FlashPlate): − (“−” indicates less than 50% inhibition at 10 μM); A4: inhibition of radioligand binding (Human Melanocortin (MC4); FlashPlate): + (“+” indicates greater than 50% inhibition at 10 μM); A5: inhibition of radioligand binding (Human melanocortin (MC5); FlashPlate): − (“−” indicates less than 50% inhibition at 10 μM); A8: inhibition of radioligand binding (Human neurokinin (NK1); filtration): − (“−” indicates less than 50% inhibition at 10 μM)"
"N=C(N)NCC(=O)NC1C(OCc2ccc(Cl)cc2)OC(COCc2ccccc2)C(O)C1OCc1ccc(Cl)cc1 (single isomer, unassigned) [compound 509]",+ (“+” indicates greater than 50% inhibition at 10 μM),− (“−” indicates less than 50% inhibition at 10 μM),− (“−” indicates less than 50% inhibition at 10 μM),− (“−” indicates less than 50% inhibition at 10 μM),− (“−” indicates less than 50% inhibition at 10 μM),+ (“+” indicates greater than 50% inhibition at 10 μM),+ (“+” indicates greater than 50% inhibition at 10 μM),+ (“+” indicates greater than 50% inhibition at 10 μM),,,,"A10: inhibition of radioligand binding, human opioid (ORL1) (Human opioid (ORL1); 10 µM): − (“−” indicates less than 50% inhibition at 10 μM); A7: inhibition of radioligand binding, human μ-opioid (MOP) (Human μ-opioid (MOP); 10 µM): + (“+” indicates greater than 50% inhibition at 10 μM); A3: inhibition of radioligand binding, human melanocortin (MC3) (Human Melanocortin (MC3); 10 µM): − (“−” indicates less than 50% inhibition at 10 μM)"
CSC1OC(COCc2ccc3ccccc3c2)C(O)C(OCc2ccc3ccccc3c2)C1NC(=O)CCCNC(=N)N (stereo not shown) [compound 321],+ (“+” indicates greater than 50% inhibition at 10 μM),− (“−” indicates less than 50% inhibition at 10 μM),− (“−” indicates less than 50% inhibition at 10 μM),− (“−” indicates less than 50% inhibition at 10 μM),− (“−” indicates less than 50% inhibition at 10 μM),+ (“+” indicates greater than 50% inhibition at 10 μM),+ (“+” indicates greater than 50% inhibition at 10 μM),+ (“+” indicates greater than 50% inhibition at 10 μM),− (“−” indicates less than 50% inhibition at 10 μM),− (“−” indicates less than 50% inhibition at 10 μM),+ (“+” indicates greater than 50% inhibition at 10 μM),
"NCCC(=O)NC1C(OCc2ccc3ccccc3c2)OC(COCc2ccc(Cl)cc2)C(O)C1OCc1ccccc1 (single isomer, unassigned) [compound 453]",,,,,,,,,,,,"A10: inhibition of radioligand binding (Human opioid (ORL1); human ORL1 membranes, 10 µM): − (“−” indicates less than 50% inhibition at 10 μM); A7: inhibition of radioligand binding (Human μ-opioid (MOP); human MOP membranes): − (“−” indicates less than 50% inhibition at 10 μM); A6: inhibition of radioligand binding ([1]; [125I]-S36057, human MCH1 membranes, 10 µM): + (“+” indicates greater than 50% inhibition at 10 μM); A3: inhibition of radioligand binding (Human Melanocortin (MC3); human MC3 membranes, 10 µM): + (“+” indicates greater than 50% inhibition at 10 μM); A2: inhibition of radioligand binding (Human κ-Opioid (KOP); human KOP membranes): − (“−” indicates less than 50% inhibition at 10 μM); A1: inhibition of radioligand binding (Human δ-opioid (DOP); human DOP membranes): − (“−” indicates less than 50% inhibition at 10 μM); A9: inhibition of radioligand binding ([2]; human NPY-Y1 membranes): − (“−” indicates less than 50% inhibition at 10 μM); A11: inhibition of radioligand binding (Mouse urotensin (mUR2); mouse mUR2 membranes): − (“−” indicates less than 50% inhibition at 10 μM); A4: inhibition of radioligand binding (Human Melanocortin (MC4); human MC4 membranes): + (“+” indicates greater than 50% inhibition at 10 μM); A5: inhibition of radioligand binding (Human melanocortin (MC5); human MC5 membranes): + (“+” indicates greater than 50% inhibition at 10 μM); A8: inhibition of radioligand binding (Human neurokinin (NK1); human NK1 membranes): + (“+” indicates greater than 50% inhibition at 10 μM)"
Cc1ccc(CO[C@H]2[C@H](O)[C@@H](CO)OC(NC(=O)CCN)[C@@H]2NC(=O)c2ccccc2)cc1 (stereo partly shown) [compound 357],+ (“+” indicates greater than 50% inhibition at 10 μM),− (“−” indicates less than 50% inhibition at 10 μM),− (“−” indicates less than 50% inhibition at 10 μM),− (“−” indicates less than 50% inhibition at 10 μM),− (“−” indicates less than 50% inhibition at 10 μM),− (“−” indicates less than 50% inhibition at 10 μM),− (“−” indicates less than 50% inhibition at 10 μM),− (“−” indicates less than 50% inhibition at 10 μM),− (“−” indicates less than 50% inhibition at 10 μM),− (“−” indicates less than 50% inhibition at 10 μM),− (“−” indicates less than 50% inhibition at 10 μM),
